In one assay the target is T1, BTK enzyme (Homo sapiens, UniProt Q06187).
T1 construct: purchased Upstate 14-552
The assay can be described thus: In vitro BTK kinase assay: BTK-POLYGAT-LS assay. Conditions: ATP 10 μM, read-out: IC50 (10uMATP). It counts as biochemical. Put shortly:
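Human BTK activity was measured with final 10 μM ATP and 100 nM polyGAT substrate in pH 7.5 Tris buffer with 10 mM MgCl2, DTT, Triton X-100 and casein.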

The target in assay [1] is BTK (phospho-BTK) in human whole blood (Homo sapiens, UniProt Q06187). Description: In vitro PD assay in human whole blood (pBTK assay).
Chain of BTK (phospho-BTK) in human whole blood (Q06187 whole entry): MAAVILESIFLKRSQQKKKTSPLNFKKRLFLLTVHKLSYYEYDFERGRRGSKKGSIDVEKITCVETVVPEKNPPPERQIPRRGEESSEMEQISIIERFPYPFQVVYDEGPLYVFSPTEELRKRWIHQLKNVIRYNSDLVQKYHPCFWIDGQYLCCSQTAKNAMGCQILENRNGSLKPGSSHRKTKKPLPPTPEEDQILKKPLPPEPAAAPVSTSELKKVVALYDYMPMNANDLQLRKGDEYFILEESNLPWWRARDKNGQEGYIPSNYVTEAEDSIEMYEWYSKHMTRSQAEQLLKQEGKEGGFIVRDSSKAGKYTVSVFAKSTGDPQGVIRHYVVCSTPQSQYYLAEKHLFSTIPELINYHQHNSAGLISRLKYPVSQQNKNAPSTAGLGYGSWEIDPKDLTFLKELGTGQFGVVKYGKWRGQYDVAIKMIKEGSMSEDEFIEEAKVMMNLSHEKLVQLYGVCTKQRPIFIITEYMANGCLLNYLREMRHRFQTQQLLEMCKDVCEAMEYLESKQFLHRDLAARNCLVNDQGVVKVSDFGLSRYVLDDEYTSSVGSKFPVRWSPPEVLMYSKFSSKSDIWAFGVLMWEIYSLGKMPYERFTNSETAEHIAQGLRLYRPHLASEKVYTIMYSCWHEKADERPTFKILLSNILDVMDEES

The source of these data is patent US10759783B2, “Biaryl inhibitors of Bruton'S tyrosine kinase” (BIOGEN MA INC., priority 2013, dated 2020).

T1 sequence (Q06187 whole entry): as above

Consider `Cc1cc(-c2ccnc(Nc3cnn(C)c3)n2)ccc1CNC(=O)N1CCC(C(C)(C)C)CC1` [Example I-20, 4-(tert-butyl)-N-(2-methyl-4-(2-((1-methyl-1H-pyrazol-4-yl)amino)pyrimidin-4-yl)benzyl)piperidine-1-carboxamide], for which the IC50 on BTK enzyme was below 10 nM; in assay [1], 500 to 1500 nM.

As for `Cn1cc(Nc2nccc(-c3ccc(CNC(=O)c4cnc(C(C)(C)C)s4)c(C(F)(F)F)c3)n2)cn1` [Example I-116, 2-(tert-butyl)-N-(4-(2-((1-methyl-1H-pyrazol-4-yl)amino)pyrimidin-4-yl)-2-(trifluoromethyl)benzyl)thiazole-5-carboxamide], the IC50 on BTK enzyme is below 10 nM; in assay [1], 500 to 1500 nM.

Consider `CC(C)(C)OC1CN(C(=O)NC2CCCCc3cc(-c4ccnc(Nc5cnn(CCO)c5)n4)ccc32)C1` (centres unmarked) [Example I-178, 3-(tert-butoxy)-N-(2-(2-((1-(2-hydroxyethyl)-1H-pyrazol-4-yl)amino)pyrimidin-4-yl)-6,7,8,9-tetrahydro-5H-benzo[7]annulen-5-yl)azetidine-1-carboxamide], for which the IC50 on BTK enzyme was below 10 nM; in assay [1] it was below 500 nM.

Take `Cc1cc(-c2cc(Nc3cc4n(n3)CCN(C)C4)ncn2)ccc1CN1CCc2c(cnn2C(C)(C)C)C1=O` [Example I-309, 1-tert-butyl-5-[[2-methyl-4-[6-[(5-methyl-6,7-dihydro-4H-pyrazolo[1,5-a]pyrazin-2-yl)amino]pyrimidin-4-yl]phenyl]methyl]-6,7-dihydropyrazolo[4,3-c]pyridin-4-one]: the 50% inhibitory concentration (IC50) at BTK enzyme was below 10 nM; in assay [1] it was below 500 nM.

A word on the IC50: it is the point on the concentration scale where inhibition reaches its midpoint.
